Data published in patent US4684664A, “Derivatives of β-(4-isocyano-1,2,3,4-diepoxycyclopentyl) acrylic acid” (Kureha Kagaku Kogyo Kabushiki Kaisha, priority 1984, dated 1987).
In brackets after ≈: the same amount, converted by molar mass.

Assays:
Format in all cases: cell-based
Enterobacter cloacae 963 = experiment: Antibacterial activity, agar-dilution MIC, organism No. 24; conditions: Enterobacter cloacae, 963; Organism No. 24, bouillon-agar; read-out: Minimum Inhibitory Concentration
Procedure, shortened: (§1)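 Minimum inhibitory concentration determined on solid bouillon agar by the agar-dilution technique, with values stated as μg/ml.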

[1] = tested on: Salmonella typhimurium IID 971; experiment: Antibacterial activity, agar-dilution MIC, organism No. 8; conditions: Salmonella enterica; Organism No. 8, bouillon-agar; read-out: Minimum Inhibitory Concentration
Procedure, shortened: as §1

[2] = tested on: Salmonella shottmuelleri 8006; experiment: Antibacterial activity, agar-dilution MIC, organism No. 11; conditions: Salmonella, 8006; Organism No. 11, bouillon-agar; read-out: Minimum Inhibitory Concentration
Procedure, shortened: as §1

[3] = tested on: Bacillus subtilis ATCC 6633; experiment: Antibacterial activity, agar-dilution MIC, organism No. 14; conditions: Bacillus subtilis, ATCC6633; Organism No. 14, bouillon-agar; read-out: Minimum Inhibitory Concentration
Procedure, shortened: as §1

[4] = tested on: Proteus mirabilis IFO 3849; experiment: Antibacterial activity, agar-dilution MIC, organism No. 19; conditions: Proteus mirabilis, IFO3849; Organism No. 19, bouillon-agar; read-out: Minimum Inhibitory Concentration
Procedure, shortened: as §1

[5] = tested on: Pseudomonas aeruginosa PAO 1; experiment: Antibacterial activity, agar-dilution MIC, organism No. 17; conditions: Pseudomonas aeruginosa, PAO1; Organism No. 17, bouillon-agar; read-out: Minimum Inhibitory Concentration
Procedure, shortened: as §1

[6] = tested on: Escherichia coli NIHJ-JC-2; experiment: Antibacterial activity, agar-dilution MIC, organism No. 5; conditions: Escherichia coli, NIHJJC2; Organism No. 5, bouillon-agar; read-out: Minimum Inhibitory Concentration
Procedure, shortened: as §1

[7] = tested on: Micrococcus luteus ATCC 9341; experiment: Antibacterial activity, agar-dilution MIC, organism No. 25; conditions: Micrococcus luteus, ATCC9341; Organism No. 25, bouillon-agar; read-out: Minimum Inhibitory Concentration
Procedure, shortened: as §1

Salmonella typhi 901 = experiment: Antibacterial activity, agar-dilution MIC, organism No. 9; conditions: Salmonella enterica, TYPHI, read-out: Minimum Inhibitory Concentration
Procedure, shortened: as §1

[8] = tested on: Klebsiella pneumoniae PCI-602; experiment: Antibacterial activity, agar-dilution MIC, organism No. 7; conditions: Klebsiella pneumoniae, PCI602; Organism No. 7, bouillon-agar; read-out: Minimum Inhibitory Concentration
Procedure, shortened: as §1

[9] = tested on: Salmonella enteritidis G 14; experiment: Antibacterial activity, agar-dilution MIC, organism No. 12; conditions: Salmonella enterica, ENTERITIDIS; Organism No. 12, bouillon-agar; read-out: Minimum Inhibitory Concentration
Procedure, shortened: as §1

[10] = tested on: Streptococcus pyogenes Cook; experiment: Antibacterial activity, agar-dilution MIC, organism No. 4; conditions: Streptococcus pyogenes; Organism No. 4, bouillon-agar; read-out: Minimum Inhibitory Concentration
Procedure, shortened: as §1

[11] = tested on: Serratia marcescens IAM 1184; experiment: Antibacterial activity, agar-dilution MIC, organism No. 13; conditions: Serratia marcescens, IAM1184; Organism No. 13, bouillon-agar; read-out: Minimum Inhibitory Concentration
Procedure, shortened: as §1

[12] = tested on: Enterobacter aerogenes ATCC 13048; experiment: Antibacterial activity, agar-dilution MIC, organism No. 23; conditions: Klebsiella aerogenes, ATCC13048; Organism No. 23, bouillon-agar; read-out: Minimum Inhibitory Concentration
Procedure, shortened: as §1

[13] = tested on: Streptococcus faecium IFO 3826; experiment: Antibacterial activity, agar-dilution MIC, organism No. 27; conditions: Enterococcus faecium, IFO3826; Organism No. 27, bouillon-agar; read-out: Minimum Inhibitory Concentration
Procedure, shortened: as §1

[14] = tested on: Staphylococcus aureus Terajima; experiment: Antibacterial activity, agar-dilution MIC, organism No. 2; conditions: Staphylococcus aureus; Organism No. 2, bouillon-agar; read-out: Minimum Inhibitory Concentration
Procedure, shortened: as §1

[15] = tested on: Salmonella paratyphi-A 1015; experiment: Antibacterial activity, agar-dilution MIC, organism No. 10; conditions: Salmonella enterica, PARATYPHI, read-out: Minimum Inhibitory Concentration
Procedure, shortened: as §1

[16] = tested on: Proteus rettgeri IFO 3850; experiment: Antibacterial activity, agar-dilution MIC, organism No. 22; conditions: Providencia rettgeri, IFO3850; Organism No. 22, bouillon-agar; read-out: Minimum Inhibitory Concentration
Procedure, shortened: as §1

[17] = tested on: Staphylococcus aureus FDA 209PJc-1; experiment: Antibacterial activity, agar-dilution MIC, organism No. 1; conditions: Staphylococcus aureus, FDA209PJC1; Organism No. 1, bouillon-agar; read-out: Minimum Inhibitory Concentration
Procedure, shortened: as §1

[18] = tested on: Proteus morganii IFO 3848; experiment: Antibacterial activity, agar-dilution MIC, organism No. 18; conditions: Morganella morganii, IFO3848; Organism No. 18, bouillon-agar; read-out: Minimum Inhibitory Concentration
Procedure, shortened: as §1

[19] = tested on: Pseudomonas aeruginosa IFO 3445; experiment: Antibacterial activity, agar-dilution MIC, organism No. 15; conditions: Pseudomonas aeruginosa, IFO3445; Organism No. 15, bouillon-agar; read-out: Minimum Inhibitory Concentration
Procedure, shortened: as §1

[20] = tested on: Streptococcus pyogenes IFO 3340; experiment: Antibacterial activity, agar-dilution MIC, organism No. 26; conditions: Streptococcus pyogenes, IFO3340; Organism No. 26, bouillon-agar; read-out: Minimum Inhibitory Concentration
Procedure, shortened: as §1

[21] = tested on: Escherichia coli K12 C600 IAM 1264; experiment: Antibacterial activity, agar-dilution MIC, organism No. 6; conditions: Escherichia coli, IAM1264; Organism No. 6, bouillon-agar; read-out: Minimum Inhibitory Concentration
Procedure, shortened: as §1

Proteus vulgaris OX-19 = experiment: Antibacterial activity, agar-dilution MIC, organism No. 20; conditions: Proteus vulgaris, OX19; Organism No. 20, bouillon-agar; read-out: Minimum Inhibitory Concentration
Procedure, shortened: as §1

Proteus vulgaris HX-19 = experiment: Antibacterial activity, agar-dilution MIC, organism No. 21; conditions: Proteus vulgaris, HX19; Organism No. 21, bouillon-agar; read-out: Minimum Inhibitory Concentration
Procedure, shortened: as §1

[22] = tested on: Candida albicans IAM 4905; experiment: Antifungal activity, agar-dilution MIC, organism No. 29; conditions: Candida albicans, IAM4905; Organism No. 29, bouillon-agar; read-out: Minimum Inhibitory Concentration
Procedure, shortened: as §1

[23] = tested on: Mycoplasma pneumoniae IID817; experiment: Antimycoplasmal activity, MIC by phenol red colour change, organism No. 28; conditions: Mycoplasma, IID817; Organism No. 28, PPLO broth + 1% glucose, 37° C.; read-out: Minimum Inhibitory Concentration (MIC)
Description: Mycoplasma pneumoniae IID817 was used as the test microorganism in a culture medium prepared by adding 1% of glucose to "PPLO broth (manufactured by Difco Co.) liquid culture medium" at 37° C. with phenol red as an indicator, thereby culturing the test microorganism.

[24] = tested on: Pseudomonas aeruginosa NCTC 10490; experiment: Antibacterial activity, agar-dilution MIC, organism No. 16; conditions: Pseudomonas aeruginosa, NCTC10490; Organism No. 16, bouillon-agar; read-out: Minimum Inhibitory Concentration
Procedure, shortened: as §1

[25] = tested on: Aspergillus niger IFO 6342; experiment: Antifungal activity, agar-dilution MIC, organism No. 30; conditions: Aspergillus niger, IFO6342; Organism No. 30, bouillon-agar; read-out: Minimum Inhibitory Concentration
Procedure, shortened: as §1

[26] = tested on: Staphylococcus aureus MS 353; experiment: Antibacterial activity, agar-dilution MIC, organism No. 3; conditions: Staphylococcus aureus, MS353; Organism No. 3, bouillon-agar; read-out: Minimum Inhibitory Concentration
Procedure, shortened: as §1

Structure (SMILES)	MIC (Enterobacter cloacae 963) [µg/mL]	MIC [1] [µg/mL]	MIC [2] [µg/mL]	MIC [3] [µg/mL]	MIC [4] [µg/mL]	MIC [5] [µg/mL]	MIC [6] [µg/mL]	MIC [7] [µg/mL]	MIC (Salmonella typhi 901) [µg/mL]	MIC [8] [µg/mL]	MIC [9] [µg/mL]	MIC [11] [µg/mL]	MIC [12] [µg/mL]	MIC [13] [µg/mL]	MIC [14] [µg/mL]	MIC [15] [µg/mL]	MIC [16] [µg/mL]	MIC [17] [µg/mL]	MIC [18] [µg/mL]	MIC [19] [µg/mL]	also measured
[C-]#[N+]C12CC3(/C=C/C(=O)NC4CCCCC4)OC3C1O2 (stereo not drawn) [compound 20]	> 200	100 (≈ 365 µM)	3.13 (≈ 11.4 µM)	50 (≈ 182 µM)	> 200	> 200	> 200	< 0.05	6.25 (≈ 22.8 µM)	0.39 (≈ 1.42 µM)	12.5 (≈ 45.6 µM)	> 200	> 200	12.5 (≈ 45.6 µM)	12.5 (≈ 45.6 µM)	6.25 (≈ 22.8 µM)	> 200	1.56 (≈ 5.69 µM)	0.78 (≈ 2.84 µM)	> 200	MIC [10]: 6.25 µg/mL (≈ 22.8 µM); MIC [20]: 6.25 µg/mL (≈ 22.8 µM); MIC [21]: > 200 µg/mL; MIC (Proteus vulgaris OX-19): 0.78 µg/mL (≈ 2.84 µM); MIC (Proteus vulgaris HX-19): 0.1 µg/mL (≈ 0.365 µM); MIC [22]: 1.56 µg/mL (≈ 5.69 µM); MIC [23]: < 0.2 µg/mL; MIC [24]: > 200 µg/mL; MIC [25]: 6.25 µg/mL (≈ 22.8 µM); MIC [26]: 1.56 µg/mL (≈ 5.69 µM)
[C-]#[N+]C12CC3(/C=C/C(=O)Nc4ccc(C(F)(F)F)cc4)OC3C1O2 (stereo not drawn) [compound 46]	> 200	50 (≈ 149 µM)	0.78 (≈ 2.32 µM)	6.25 (≈ 18.6 µM)	> 200	> 200	> 200	< 0.05	50 (≈ 149 µM)	0.39 (≈ 1.16 µM)	25 (≈ 74.3 µM)	200 (≈ 595 µM)	> 200	> 200	0.39 (≈ 1.16 µM)	0.78 (≈ 2.32 µM)	200 (≈ 595 µM)	0.1 (≈ 0.297 µM)	1.56 (≈ 4.64 µM)	> 200	MIC [20]: 3.13 µg/mL (≈ 9.31 µM); MIC [21]: > 200 µg/mL; MIC (Proteus vulgaris OX-19): 0.39 µg/mL (≈ 1.16 µM); MIC (Proteus vulgaris HX-19): 0.39 µg/mL (≈ 1.16 µM); MIC [22]: 1.56 µg/mL (≈ 4.64 µM); MIC [23]: < 0.2 µg/mL; MIC [24]: > 200 µg/mL; MIC [25]: 3.13 µg/mL (≈ 9.31 µM); MIC [26]: < 0.05 µg/mL
[C-]#[N+]C12CC3(/C=C/C(=O)Nc4cccc([N+](=O)[O-])c4)OC3C1O2 (stereo not drawn) [compound 48]	25 (≈ 79.8 µM)	3.13 (≈ 9.99 µM)	0.39 (≈ 1.24 µM)	6.25 (≈ 20 µM)	12.5 (≈ 39.9 µM)	> 200	25 (≈ 79.8 µM)	< 0.05	3.13 (≈ 9.99 µM)	0.2 (≈ 0.638 µM)	3.13 (≈ 9.99 µM)	6.25 (≈ 20 µM)	> 200	6.25 (≈ 20 µM)	0.39 (≈ 1.24 µM)	0.39 (≈ 1.24 µM)	1.56 (≈ 4.98 µM)	0.2 (≈ 0.638 µM)	0.2 (≈ 0.638 µM)	> 200	MIC [20]: 0.39 µg/mL (≈ 1.24 µM); MIC [21]: 25 µg/mL (≈ 79.8 µM); MIC (Proteus vulgaris OX-19): < 0.05 µg/mL; MIC (Proteus vulgaris HX-19): < 0.05 µg/mL; MIC [22]: 3.13 µg/mL (≈ 9.99 µM); MIC [23]: < 0.2 µg/mL; MIC [24]: > 200 µg/mL; MIC [25]: 3.13 µg/mL (≈ 9.99 µM); MIC [26]: 0.1 µg/mL (≈ 0.319 µM)
[C-]#[N+]C12CC3(/C=C/C(=O)Nc4ccccc4N)OC3C1O2 (stereo not drawn) [compound 61]	100 (≈ 353 µM)	6.25 (≈ 22.1 µM)	3.13 (≈ 11 µM)	25 (≈ 88.2 µM)	12.5 (≈ 44.1 µM)	> 200	12.5 (≈ 44.1 µM)	0.78 (≈ 2.75 µM)	3.13 (≈ 11 µM)	1.56 (≈ 5.51 µM)	3.13 (≈ 11 µM)	25 (≈ 88.2 µM)	> 200	100 (≈ 353 µM)	12.5 (≈ 44.1 µM)	3.13 (≈ 11 µM)	3.13 (≈ 11 µM)	3.13 (≈ 11 µM)	3.13 (≈ 11 µM)	> 200	MIC [20]: 6.25 µg/mL (≈ 22.1 µM); MIC [21]: 12.5 µg/mL (≈ 44.1 µM); MIC (Proteus vulgaris OX-19): 3.13 µg/mL (≈ 11 µM); MIC (Proteus vulgaris HX-19): 1.56 µg/mL (≈ 5.51 µM); MIC [22]: 25 µg/mL (≈ 88.2 µM); MIC [23]: < 0.2 µg/mL; MIC [24]: > 200 µg/mL; MIC [25]: 100 µg/mL (≈ 353 µM); MIC [26]: 3.13 µg/mL (≈ 11 µM)
